Experimental findings from patent US11564913B2, “Compositions and methods for treating cancer” (Children's Hospital Medical Center, priority 2019, dated 2023) are described below.

Molecules are shown by their SMILES.

One assay deals with MDA-MB-231 cells. Put plainly: Cell spreading on fibronectin. In kind it is cell-based, human. To be noted: 30 min exposure, serum-free. The procedure: FIG. 6: IODVA1 inhibits cell-substratum and cell-cell interactions. (A) IODVA1 impedes spreading of MCF7 and MDA-MB-231 cells on fibronectin. MCF7, T47D, and MDA-MB-231 cells were incubated on fibronectin coated coverslips for 10 min, then further incubated with the indicated concentrations of IODVA1 for 30 min in serum-free media, fixed and observed by bright field microscopy. Areas of single cells were calculated from 6 random fields (no less than 300 cells total per treatment group). Results shown are mean±s.e.m. of a single experiment and are representative of three independent experiments. (B) Effects of IODVA1 treatment on spheroid formation in MCF10A, MCF7, T47D, and MDA-MB-231 cells. […] Aggregates and spheroids were dissociated with accutase and trituration, and the number of live cells was determined by trypan blue exclusion. […]
Applicants assessed if IODVA1 interferes with cell spreading on the extracellular matrix, an event that is also governed by the rearrangement of the actin cytoskeleton. […] No changes in the area in T47D cells were detected, although more rounded cells in the presence of IODVA1 were observed.
For cell spreading, MDA-MB-231, MCF7 and T47D were seeded on fibronectin-coated coverslips in serum-free media. […] Six random fields were imaged under 20× objective and cell area of individual cells were quantified to assess the degree of spreading (ImageJ). […]

The target of another assay is T1, recombinant Vav3 (Homo sapiens, UniProt Q9UKW4).
T1 construct: His6; made in house; host or cells: E. coli BL21 (DE3) or T7 Express, co-expressed with groEL-groES
T1 sequence (Q9UKW4 whole entry, species assumed): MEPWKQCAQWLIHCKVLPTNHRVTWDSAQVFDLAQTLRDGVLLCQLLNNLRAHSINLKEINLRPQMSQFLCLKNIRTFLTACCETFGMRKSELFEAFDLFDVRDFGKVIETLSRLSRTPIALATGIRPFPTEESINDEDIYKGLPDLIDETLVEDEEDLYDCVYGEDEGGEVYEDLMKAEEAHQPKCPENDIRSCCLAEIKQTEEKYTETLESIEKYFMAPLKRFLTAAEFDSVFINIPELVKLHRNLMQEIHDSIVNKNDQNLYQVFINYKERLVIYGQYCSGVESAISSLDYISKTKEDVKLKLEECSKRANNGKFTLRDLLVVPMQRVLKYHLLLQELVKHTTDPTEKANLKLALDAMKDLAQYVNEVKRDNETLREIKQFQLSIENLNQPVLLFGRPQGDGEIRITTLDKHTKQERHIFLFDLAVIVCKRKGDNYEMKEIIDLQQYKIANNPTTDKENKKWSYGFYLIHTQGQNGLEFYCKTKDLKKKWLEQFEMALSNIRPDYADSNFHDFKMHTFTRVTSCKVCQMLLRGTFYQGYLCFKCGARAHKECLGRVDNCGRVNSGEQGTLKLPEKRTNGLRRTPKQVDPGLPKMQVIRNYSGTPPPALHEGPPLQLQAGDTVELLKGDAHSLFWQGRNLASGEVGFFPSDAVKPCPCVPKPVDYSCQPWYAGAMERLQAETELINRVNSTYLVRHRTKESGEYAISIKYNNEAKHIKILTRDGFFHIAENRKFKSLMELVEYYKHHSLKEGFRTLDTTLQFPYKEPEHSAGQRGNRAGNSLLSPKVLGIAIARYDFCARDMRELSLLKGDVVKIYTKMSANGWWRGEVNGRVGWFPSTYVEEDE
The assay can be described thus: Microscale thermophoresis (MST) binding. To be noted: one molecule of IODVA1 binds, read-out: binding affinity (Kd). The procedure: FIG. 14: IODVA1 targets Vav3 in vitro and in vivo. (A) Ba/F3 cells expressing empty vector Mieg3 or p190-BCR-ABL1 were treated with vehicle control or IODVA1 (IO1, 3 μM) for 30 min and incubated with GST-Rac and glutathione beads. Beads were washed and the protein complexes were separated on SDS-PAGE and immunoblotted for pVav3. Input Vav3 was used as control. (B) Binding affinity (Kd) between IODVA1 and Vav3 (green), LARG (brown), and RacGDP (blue). […] Error bars=SD; N=3. (C) Quantification of the average number of colonies made by bone marrow wild-type (black) and Vav3^−/− (lilac) p190-BCR-ABL1 leukemic cells treated with vehicle control or IODVA1 (IO1, 1 and 3 μM) (* p≤0.05; ** p≤0.01; *** p≤0.001; ns, not significant). (D) Representative histogram data of the cell cycle analysis of wild-type (black and grey bars) and Vav3^−/− (dark and light lilac) bone marrow cells expressing p190-BCR-ABL and treated with vehicle control or IODVA1 (IO1, 3 μM) for 20 h. (E) Quantification by densitometry of the pVav3 band from FIG. 14A. […]
To test this hypothesis, we measured its binding affinity (Kd) to recombinant Vav3 and Rac1 using microscale thermophoresis (MST); the catalytic domain (DH/PH) of the RhoGEF LARG served as negative control. […] Second, like Vav3, LARG contains a DH/PH domain responsible for the exchange activity such that any non-specific binding to this domain should be detected. […]
A general note: In MST a laser heats a spot of the sample, and binding alters the fluorescence response.

As usually defined, the Kd is the constant that tells how readily two partners part at equilibrium. With `OC1(c2ccccn2)N=C(Nc2nc3ccccc3[nH]2)N=C1c1ccccn1` (centres unmarked) [IODVA1, (Z)-2-((1H-benzo[d]imidazol-2-yl)imino)-4,5-di(pyridin-2-yl)-2,5-dihydro-1H-imidazol-5-ol], in the assay on MDA-MB-231 cells, the “concentration at which spreading is interfered with (decrease in cell area)” value was 1 µM. On recombinant Vav3, the equilibrium dissociation constant (Kd) worked out at 512 nM.
